Patent US8227428B2, “Anti-infammatory macrolide” (Glaxo Group Limited, priority 2009, dated 2012)

Key:
[1] = In vitro stability in human plasma; assay type: in vitro ADME; details: 37° C.
Procedure: (§1) An in vitro stability study in human whole blood and plasma is carried out over 24 hours at 37° C. Drug-free freshly collected human blood (CPD—citrate-phosphate-dextrose is used for all blood collections as anticoagulant) and plasma are spiked with a previously prepared standard solution of test compound to a final concentration of 2000 ng/mL. For each compound blood and plasma are spiked in duplicate and incubated for 24 hours. Two separate aliquots of blood or plasma (50 μL) are sampled from each incubation mixture at 0, 15, 30, 60, 120, 240 and 1440 minutes. All aliquots are mixed with an equal volume of water (50 μL) and extracted with 300 μL of acetonitrile/methanol (2:1) containing internal standard (roxithromycin). The samples are then vortexed, centrifuged and analysed by LC/MS/MS (MRM mode). Results are expressed as the percentage of compound remaining, expressed as the ratio of analyte/internal standard.

[2] = Stability in bio-relevant media (SGF, Fasted SIF, Fed SIF) at 37° C.; assay type: physicochemical
Procedure: Stability in buffer solutions pH 2 to pH 8 at 25° C., and in bio-relevant media (SGF pH 1.6, Fasted SIF pH 6.5 and Fed SIF pH 5.0) at 37° C., during 24 hours is monitored. The samples are analysed by LC/MS.
SGF (Simulated Gastric Fluid) pH 1.6
Fasted SIF (Simulated Intestinal Fluid) pH 6.5
Fed SIF (Simulated Intestinal Fluid) pH 5.0
Flow: 0.3 mL/min Column temp.: 25° C. Sample temp.: 25° C. (for stability assay in buffer solutions) • 37° C. (for stability assay in bio-relevant media) Injector volume: 3 μL (without injection program) MS Conditions: Instrument HP MS API-ES, positive ion mode Mass Range: 150-1500 Fragmentor: 100 Gain: 1.0 Treshold: 150 Step size: 0.20 Gas Temperature: 350° C. Drying Gas Flow: 13 L/min Nebulizer Pressure: 35 psig Capillary Voltage Positive 4000 V • Negative 4000 V Sample Preparation: a) For Stability Assay in Buffer Solutions
b) For Stability Assay in Bio-Relevat Media
b1) For SGF Media pH 1.6 Testing:
Compounds are dissolved in SGF media pH 1.6 to give 0.2 mg/mL solution in case of compounds 1 and 2, and to give 0.1 mg/mL solution in case of compound 3. Solutions are then stored in a water bath at 37° C. and removed at the proper time point for LC/MS analysis. Before analysis, pH values of prepared sample solutions are checked and adjusted if necessary.
b2) For Fasted SIF Media pH 6.5 Testing:
Compounds are dissolved in Fasted SIF media pH 6.5 to give 2 mg/mL solution. Solutions are then dispatched into vials that are stored in a water bath at 37° C. and removed at the proper time point and diluted 10 times with CH3CN for LC/MS analysis. Before analysis, pH values of prepared sample solutions are checked and adjusted if necessary.
b3) For Fed SIF Media pH 5.0 Testing:
Compounds are dissolved in Fed SIF media pH 5.0 to give 2 mg/mL solution. Solutions are then dispatched into vials that are stored in a water bath at 37° C. and removed at the proper time point and diluted 40 times with CH3CN for LC/MS analysis. Before analysis, pH values of prepared sample solutions are checked and adjusted if necessary.

[3] = tested on: Lung neutrophilia induced by bacterial lipopolysaccharide (LPS); experiment: Lung neutrophilia induced by bacterial lipopolysaccharide (LPS) in male BALB/cJ mice; assay type: in vivo; details: average; single dose 200 mg/kg i.p.; vs LPS challenged untreated animals
Procedure: For intraperitoneal administration (i.p.) compounds are dissolved in a final concentration of 10 mg/mL. The required amount of compound is first dissolved in dimethylsulfoxide (DMSO, Sigma) and then diluted with 0.5% (w/v) methyl-cellulose so that the final DMSO concentration is 5% (v/v). The obtained solution is applied in a dose volume of 0.2 mL per 10 g of animal. Therefore, the compound dose is 200 mg/kg.
Male BALB/cJ mice (Charles River, France), with an average weight of ˜30 g are randomly grouped (n=8 in testing group, 10 in positive control and 8 in negative control). Mice receive intraperitoneally (i.p.) a single dose of 200 mg/kg of test compound. Two hours after administration, 2 μg of LPS (from Escherichia coli serotype 0111:B4, Sigma), dissolved in sterile PBS in a volume of 60 μL, is intranasally administered to all experimental groups except the negative control group, which receive the same volume of vehicle (PBS). Animals are sacrificed approximately 24 hours after application of LPS in order to obtain bronchioalveolar lavage fluid (BALF), which is used to determine absolute number of cells and the percentage of neutrophils. Results are expressed as percentage decrease in total cell number and number of neutrophils in BALF of treated animals compared to positive control (LPS challenged, but untreated animals).

[4] = In vitro stability in human whole blood; assay type: in vitro ADME; details: 37° C.
Procedure: as §1

[5] = Fasted SIF pH 6.5, 37° C., Initial
[6] = Fed SIF pH 5.0, 37° C., Initial

Compound | Percentage (Area %) of the compound observed in Bio-relevant media ([2]; Fasted SIF pH 6.5, 37° C., 1 h) | Percentage (Area %) of the compound observed in Bio-relevant media ([2]; Fasted SIF pH 6.5, 37° C., 2 h) | Percentage (Area %) of the compound observed in Bio-relevant media ([2]; Fasted SIF pH 6.5, 37° C., 3 h) | Percentage (Area %) of the compound observed in Bio-relevant media ([2]; Fasted SIF pH 6.5, 37° C., 4 h) | Percentage (Area %) of the compound observed in Bio-relevant media ([2]; Fasted SIF pH 6.5, 37° C., 5 h) | Percentage (Area %) of the compound observed in Bio-relevant media [2, 5] | Percentage (Area %) of the compound observed in Bio-relevant media ([2]; Fed SIF pH 5.0, 37° C., 1 h) | Percentage (Area %) of the compound observed in Bio-relevant media ([2]; Fed SIF pH 5.0, 37° C., 2 h) | Percentage (Area %) of the compound observed in Bio-relevant media ([2]; Fed SIF pH 5.0, 37° C., 3 h) | Percentage (Area %) of the compound observed in Bio-relevant media ([2]; Fed SIF pH 5.0, 37° C., 4 h) | Percentage (Area %) of the compound observed in Bio-relevant media ([2]; Fed SIF pH 5.0, 37° C., 5 h) | Percentage (Area %) of the compound observed in Bio-relevant media ([2]; Fed SIF pH 5.0, 37° C., 24 h) | Percentage (Area %) of the compound observed in Bio-relevant media [2, 6] | Percentage (Area %) of the compound observed in Bio-relevant media ([2]; SGF pH 1.6, 37° C., 1 h) | Percentage (Area %) of the compound observed in Bio-relevant media ([2]; SGF pH 1.6, 37° C., 2 h) | Percentage (Area %) of the compound observed in Bio-relevant media ([2]; SGF pH 1.6, 37° C., 3 h) | Percentage (Area %) of the compound observed in Bio-relevant media ([2]; SGF pH 1.6, 37° C., 4 h) | Percentage (Area %) of the compound observed in Bio-relevant media ([2]; SGF pH 1.6, 37° C., 5 h) | Percentage (Area %) of the compound observed in Bio-relevant media ([2]; SGF pH 1.6, 37° C., 6 h) | Percentage (Area %) of the compound observed in Bio-relevant media ([2]; SGF pH 1.6, 37° C., 8 h) | other results
CC[C@H]1OC(=O)[C@H](C)[C@@H](O[C@H]2C[C@@](C)(OC)[C@@H](OC(=O)CCN(CC)CC)[C@H](C)O2)[C@H](C)[C@@H](O[C@@H]2O[C@H](C)C[C@H](NC)[C@H]2O)[C@](C)(OC)C[C@@H](C)C(=O)N[C@H](C)[C@@H](O)[C@]1(C)O [Example 2, 3′-N-Demethyl-4″-O-(3-diethylaminopropionoyl)-6-O-methyl-9a-aza-9a-homoerythromycin A] | 99.6 Area % | 98.0 Area % | 93.0 Area % | 89.7 Area % | 86.7 Area % | 100 Area % | 99.7 Area % | 99.6 Area % | 99.4 Area % | 98.7 Area % | 98.6 Area % | 97.4 Area % | 100 Area % | 99.3 Area % | 99.3 Area % | 96.6 Area % | 92.9 Area % | 92.3 Area % | 91.1 Area % | 90.1 Area % | compound remaining in plasma ([1]; after 24 hours): less than 2%; stability in bio-relevant media SGF pH 1.6 and Fasted SIF pH 6.5 ([2]; 37° C., during 24 hours): Example 2 showed instability in bio-relevant media SGF pH 1.6 and in Fasted SIF pH 6.5.; Percentage (Area %) of the compound observed in Bio-relevant media ([2]; SGF pH 1.6, 37° C., 15): 83.9 Area %; Percentage (Area %) of the compound observed in Bio-relevant media ([2]; SGF pH 1.6, 37° C., 10 h): 87.2 Area %; Percentage (Area %) of the compound observed in Bio-relevant media ([2]; SGF pH 1.6, 37° C., 12 h): 85.4 Area %; Percentage (Area %) of the compound observed in Bio-relevant media ([2]; SGF pH 1.6, 37° C., 18 h): 82.4 Area %; Percentage (Area %) of the compound observed in Bio-relevant media ([2]; SGF pH 1.6, 37° C., 21 h): 81.0 Area %; Percentage (Area %) of the compound observed in Bio-relevant media ([2]; SGF pH 1.6, 37° C., Initial): 100 Area %; inhibition of the number of neutrophils in BALF [3]: more than 70%; compound remaining in whole blood ([4]; after 24 hours): around 41%
CC[C@H]1OC(=O)[C@H](C)[C@@H](O[C@H]2C[C@@](C)(OC)[C@@H](OC(=O)CN(CC)CC)[C@H](C)O2)[C@H](C)[C@@H](O[C@@H]2O[C@H](C)C[C@H](N(C)C)[C@H]2O)[C@](C)(OC)C[C@@H](C)C(=O)N[C@H](C)[C@@H](O)[C@]1(C)O [Example 3, 4″-O-(2-diethylaminoethanoyl)-6-O-methyl-9a-aza-9a-homoerythromycin A] | 99.2 Area % | 98.7 Area % | 98.3 Area % | 97.8 Area % | 97.6 Area % | 100 Area % | 100 Area % | 99.9 Area % | 100 Area % | 99.9 Area % | 99.8 Area % | 99.8 Area % | 100 Area % | 98.5 Area % | 98.5 Area % | 98.0 Area % | 98.0 Area % | 98.0 Area % | 95.9 Area % | 95.7 Area % | stability in plasma ([1]; 2000 ng/mL, over 24 hours): stable; Percentage (Area %) of the compound observed in Bio-relevant media ([2]; Fasted SIF pH 6.5, 37° C., 24 h): 95.1 Area %; Percentage (Area %) of the compound observed in Bio-relevant media ([2]; SGF pH 1.6, 37° C., 10 h): 95.0 Area %; Percentage (Area %) of the compound observed in Bio-relevant media ([2]; SGF pH 1.6, 37° C., 12 h): 95.0 Area %; Percentage (Area %) of the compound observed in Bio-relevant media ([2]; SGF pH 1.6, 37° C., 24 h): 94.5 Area %; Percentage (Area %) of the compound observed in Bio-relevant media ([2]; SGF pH 1.6, 37° C., Initial): 100 Area %; stability in all three bio relevant media ([2]; SGF pH 1.6, Fasted SIF pH 6.5, Fed SIF pH 5.0, 37° C., during 24 hours): Examples 1 and 3 showed stability in all three bio relevant media.; inhibition of the number of neutrophils in BALF [3]: more than 79%; stability in whole blood ([4]; 2000 ng/mL, over 24 hours): stable
